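Grown in 96-well plates, cells were treated for 48 hours with each compound at five concentrations. Insufficient inhibition: endpoint recorded as highest concentration tested. Here, GI50 denotes the concentration required for 50% inhibition of growth. TGI denotes the concentration required for complete inhibition of growth.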
Columns and labels:
Experiment in all cases: inhibition of tumour cell growth, NCI panel, 48 h
[1] = test system: M14 melanoma
[2] = test system: SK-MEL-2 melanoma
[3] = test system: SNB-19 CNS
[4] = test system: OVCAR-4 ovarian
[5] = test system: MDA-N
[6] = test system: EKVX NSCLC
[7] = test system: NCI-H522 lung
[8] = test system: OVCAR-5 ovarian
[9] = test system: MDA-MB-231 breast
[10] = test system: BT-549 breast
[11] = test system: HOP-92 NSCLC

SMILES	TGI [1] [µM]	TGI [2] [µM]	TGI [3] [µM]	TGI [4] [µM]	TGI [5] [µM]	TGI [6] [µM]	TGI [7] [µM]	TGI [8] [µM]	TGI [9] [µM]	TGI [10] [µM]	TGI [11] [µM]	GI50 [4] [µM]	GI50 [6] [µM]	GI50 [8] [µM]	GI50 [9] [µM]	GI50 [10] [µM]	GI50 [11] [µM]	GI50 [1] [µM]	GI50 [2] [µM]
NS(=O)(=O)c1ccc(NNC(=O)c2cccc3c(=O)c4ccccc4[nH]c23)cc1	> 100	> 100	> 100	> 100	> 100	> 100	> 100	> 100	> 100	> 100	> 100	–	–	–	–	–	–	–	–
C1CNCCN2CCCNCCN(C1)CC2	> 100	> 100	> 100	> 100	> 100	> 100	> 100	> 100	> 100	> 100	> 100	–	–	–	–	–	–	–	–
Clc1cc2nc(C3CCCO3)[nH]c2cc1Cl (stereo not drawn)	> 100	> 100	> 100	> 100	58	> 100	66	> 100	> 100	91.3	> 100	–	–	–	–	–	–	–	–
O=C1/C(=C/c2ccc(O)cc2)NC(=S)N1CN1CCCCC1	> 100	> 100	> 100	> 100	> 100	> 100	> 100	> 100	> 100	–	> 100	–	–	–	–	–	–	–	–
CC1=C(C)C(=O)OC(C(C)(O)C2(O)CCC3(O)C4CC(Cl)C5(O)C(O)C=CC(=O)C5(C)C4CCC32C)C1 (stereo not drawn)	> 100	> 100	> 100	> 100	> 100	> 100	> 100	> 100	> 100	> 100	> 100	–	–	–	–	–	–	–	–
c1ccc(Cc2cccc3cc(-c4ccc(-c5ccccc5)cc4)[nH]c23)cc1	> 100	> 100	> 100	> 100	> 100	> 100	> 100	> 100	> 100	> 100	> 100	–	–	–	–	–	–	–	–
CN(Cc1cnc2nc(N)nc(N)c2n1)c1ccc(C(=O)NC(CCS(=O)(=O)O)C(=O)O)cc1 (stereo not drawn)	> 100	> 100	> 100	> 100	> 100	> 100	> 100	–	> 100	> 100	> 100	–	–	–	–	–	–	–	–
CN(c1c(Cl)cccc1Cl)S(=O)(=O)c1ccccc1[N+](=O)[O-]	> 100	> 100	> 100	> 100	> 100	> 100	> 100	> 100	–	> 100	–	–	–	–	–	–	–	–	–
COc1ccc(-c2cc(-c3ccccc3)n(C3OC(COC(C)=O)C(OC(C)=O)C(OC(C)=O)C3OC(C)=O)c(=S)c2C#N)cc1 (stereo not drawn)	20.5	–	23.1	8.06	25.5	31.9	18.5	29.2	16.4	34.9	15.5	–	–	–	–	–	–	–	–
CN(C)c1cccc(-c2cc(=O)c3ccccc3[nH]2)c1	> 100	–	> 100	–	–	> 100	57.6	–	–	–	–	–	–	–	–	–	–	–	–
CN(C)c1nc(N(C)C)nc(N(C)CN(C)c2ccccc2)n1	–	> 100	> 100	> 100	–	–	> 100	–	–	–	–	–	–	–	–	–	–	–	–
ON=C1CCCCC(=NO)CCCC1	–	> 100	> 100	> 100	> 100	–	> 100	–	> 100	> 100	> 100	–	–	–	–	–	–	–	–
C=C1C(=O)OC2/C=C(\C)CC/C=C(/C)CC(OC(=O)/C(=C/CO)CO)C12 (stereo not drawn)	39	64	> 100	> 100	47.2	–	39.9	36.8	–	30.9	59.9	–	–	–	–	–	–	–	–
O=C(CSc1nc2ccc(I)cc2c(=O)n1Cc1ccccc1)N/N=C/c1ccccc1	> 100	35.6	49.1	> 100	> 100	> 100	40	> 100	43.3	–	34	–	–	–	–	–	–	–	–
O=C(ON=c1c2ccccc2ccc2ccccc12)c1cc([N+](=O)[O-])cc([N+](=O)[O-])c1	> 100	> 100	> 100	> 100	> 100	> 100	–	> 100	> 100	> 100	> 100	–	–	–	–	–	–	–	–
O=C(NC(=O)c1cn(CCN2CCNCC2)c(=O)[nH]c1=O)OCc1ccccc1	> 100	–	–	> 100	–	> 100	> 100	> 100	–	–	> 100	–	–	–	–	–	–	–	–
CN1CCc2c(sc3nc(Nc4ccccc4)n(N)c(=O)c23)C1	88	> 100	> 100	–	> 100	> 100	–	> 100	> 100	> 100	–	–	–	–	–	–	–	–	–
CCN(CC)CCN1C(=O)c2cccc3c(-c4ccc5c(c4)ncn5C4CCCCC4)ccc(c23)C1=O	–	–	–	4.56	–	3.18	–	4.04	3.19	2.3	1.65	1.07	1.32	1.72	1.63	0.922	0.372	–	–
O=C1C=C2S[C@H]3C[C@]2(C=C1Br)c1c(c(O)c2c4c1=NCCC=4C=N2)N3	2.01	1.39	25.7	0.985	0.314	3.19	0.716	3.25	1.16	–	2.28	–	–	–	–	–	–	–	–
N#CS/C(C(Cl)=C(Cl)Cl)=C(/Cl)[N+](=O)[O-]	2.79	17.1	49.4	–	3.18	6.76	2.13	–	11.9	4.92	–	–	–	–	–	–	–	–	–
COc1ccc2c(c1)/C(=C(\C(Cl)=C(\Cl)N1CCCCC1)[N+](=O)[O-])N2	> 100	–	> 100	> 100	> 100	> 100	> 100	> 100	> 100	> 100	> 100	–	–	–	–	–	–	–	–
CCCCCCc1nn2c(-c3ccc(C)cc3)nnc2s1	> 100	> 100	> 100	> 100	> 100	> 100	> 100	> 100	> 100	> 100	–	–	–	–	–	–	–	–	–
CCOC(=O)C(Cc1ccc2c(c1)CCC2)(Cc1ccc2c(c1)CCC2)C(=O)OCC	> 100	> 100	> 100	> 100	> 100	> 100	> 100	> 100	> 100	–	> 100	–	–	–	–	–	–	–	–

SMILES	TGI [1] [µM]	TGI [2] [µM]	TGI [3] [µM]	TGI [4] [µM]	TGI [5] [µM]	TGI [6] [µM]	TGI [7] [µM]	TGI [8] [µM]	TGI [9] [µM]	TGI [10] [µM]	TGI [11] [µM]	GI50 [4] [µM]	GI50 [6] [µM]	GI50 [8] [µM]	GI50 [9] [µM]	GI50 [10] [µM]	GI50 [11] [µM]	GI50 [1] [µM]	GI50 [2] [µM]
CSC1=N/C(=C\c2cccs2)C(=O)N1CN1CCOCC1	> 100	> 100	> 100	86.7	> 100	> 100	> 100	> 100	> 100	–	94.3	–	–	–	–	–	–	–	–
COc1cc(Cn2c3c(c4c(CN(C)C)c(O)ccc42)C(=O)c2ccccc2C3=O)cc(OC)c1	32.6	29.8	36.9	26.9	31.6	40.4	–	42.5	40.7	–	–	–	–	–	–	–	–	–	–
CC(=O)OCC1C(C(C)OC(C)=O)CCC2C1CCC1(C)C(OC(C)=O)CCC21 (stereo not drawn)	31.9	–	42.5	39.6	37	32.9	37.5	> 100	30.7	24.5	37.4	–	–	–	–	–	–	–	–
Cc1ccc2nc3c(C(=O)NCCN(C)C)cccc3cc2c1	–	5.3	6.34	–	–	2.78	–	5.64	–	–	5.08	–	–	–	–	–	–	–	–
C#CCNC(=O)CCC(N)C(=O)O (stereo not drawn)	–	> 100	> 100	> 100	–	> 100	> 100	> 100	–	–	> 100	–	–	–	–	–	–	–	–
COC1/C=C\C=C(/C)C(=O)NC2=CC(=O)C=C(C2=O)C(OC)C(C)CC(OC)C(OC)C(C)/C=C(/C)C1OC(N)=O (stereo not drawn)	–	20.5	30.7	21.8	–	20.9	1.1	28.8	–	–	4.52	–	–	–	–	–	–	–	–
COc1ccc2c(c1)/C(=C(\C(Cl)=C(Cl)Cl)[N+](=O)[O-])N2	> 100	–	> 100	> 100	> 100	> 100	87	> 100	> 100	> 100	> 100	–	–	–	–	–	–	–	–
Nc1[nH]c(=O)nc2sc3c(c12)CCCC3	> 100	> 100	> 100	> 100	–	> 100	> 100	> 100	> 100	–	> 100	–	–	–	–	–	–	–	–
CCN(CC)CCNc1ccc([N+](=O)[O-])c2nc3ccccc3c(N)c12	1.67	0.955	–	1.48	2.14	2.51	–	5.26	2.4	2.38	5.84	–	–	–	–	–	–	–	–
CC1=NN(c2nc(N)nc(CS(C)(=O)=O)n2)C(C)(C)C1	> 100	> 100	> 100	> 100	–	> 100	–	–	> 100	> 100	> 100	–	–	–	–	–	–	–	–
O=C1CCc2c3c(c4c([nH]c5ccccc54)c2CC1)C(=O)NC3=O	44.6	17.1	44.4	13.1	–	> 100	9.3	> 100	> 100	28.2	82	–	–	–	–	–	–	–	–
O=C1CCCCC/C=C2/CC[C@H](Sc3ccccc3)[C@@H]12	> 100	> 100	> 100	> 100	–	> 100	–	–	–	–	–	–	–	–	–	–	–	–	–
Cn1c(-c2ccccc2)cc(-c2ccc3c(c2)OCO3)c1-c1cccs1	> 100	> 100	> 100	> 100	> 100	> 100	–	> 100	–	> 100	> 100	–	–	–	–	–	–	–	–
COc1ccc2nc(-c3ccc(OC(=O)N(C)C)cc3)cn2c1	> 100	> 100	> 100	> 100	> 100	> 100	> 100	> 100	> 100	–	> 100	–	–	–	–	–	–	–	–
CSc1ccc2c(c1)c(CCN)c(C)n2Cc1ccc(Cl)c(Cl)c1	3.22	3.34	–	–	–	–	–	3.13	3.39	–	2.78	–	–	1.51	1.69	–	1.4	1.69	1.74
O=c1oc2ncccc2n1Cc1ccc([N+](=O)[O-])cc1	> 100	> 100	–	> 100	> 100	> 100	> 100	> 100	> 100	> 100	> 100	–	–	–	–	–	–	–	–
NCCCNCCSSCc1ccccc1CSSCCNCCCN	> 100	> 100	> 100	> 100	–	> 100	26.7	> 100	–	–	87.9	–	–	–	–	–	–	–	–
O=C(O)CC(NC(=O)C(F)(F)F)C(=O)NC1Cc2ccccc2OC1=O (stereo not drawn)	> 100	> 100	> 100	–	> 100	> 100	> 100	> 100	–	> 100	–	–	–	–	–	–	–	–	–
CSCCC(NC(=O)C(Cc1ccccc1)NC(=O)CNC(=O)CNC(=O)C(N)Cc1ccc(O)cc1)C(=O)O (stereo not drawn)	–	> 100	> 100	> 100	–	> 100	> 100	> 100	–	–	> 100	–	–	–	–	–	–	–	–
CC(=O)OC1C=CC2CCN3C(=O)c4cc5c(cc4[C@H]1C23)OCO5 (stereo partly drawn)	> 100	–	> 100	–	–	> 100	> 100	–	–	–	–	–	–	–	–	–	–	–	–
COCCO	–	> 100	> 100	> 100	–	> 100	> 100	> 100	–	–	> 100	–	–	–	–	–	–	–	–
Cc1c2c(c(C)c3c[n+](C)ccc13)Oc1ccccc1O2	> 59.7	41.2	12.7	28.2	53.5	> 100	17.1	> 31.6	> 69.8	–	99.8	–	–	–	–	–	–	–	–
O=C(N=Nc1ccc([N+](=O)[O-])cc1)NNc1ccc([N+](=O)[O-])cc1	31	28.9	> 100	44.8	32.3	–	33.1	48	76.2	> 100	–	–	–	–	–	–	–	–	–
